# Molecular target: T1, serine racemase (SRR) (Homo sapiens, UniProt Q9GZT4)
# T1 construct: SRR Enzyme Human Recombinant (ENZ-232, ProSpec)
# T1 sequence (Q9GZT4 1-340): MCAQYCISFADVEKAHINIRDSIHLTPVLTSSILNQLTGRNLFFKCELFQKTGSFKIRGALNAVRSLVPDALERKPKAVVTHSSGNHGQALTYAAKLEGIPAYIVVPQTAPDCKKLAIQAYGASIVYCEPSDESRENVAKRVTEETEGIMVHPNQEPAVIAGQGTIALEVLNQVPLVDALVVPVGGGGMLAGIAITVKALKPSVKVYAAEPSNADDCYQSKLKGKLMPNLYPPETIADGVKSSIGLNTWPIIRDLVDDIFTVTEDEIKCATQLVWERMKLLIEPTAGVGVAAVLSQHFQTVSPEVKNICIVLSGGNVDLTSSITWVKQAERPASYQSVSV
# Test: recombinant SRR racemization of L-serine, D-serine read by coupled DAAO/HRP luminol luminescence (activation)
# Assay type: biochemical
smiles,measurement,value
"NC(CSc1nc2ccccn2c1[N+](=O)[O-])C(=O)O (stereo not shown) [NSC294149, 2-amino-3-(3-nitroimidazo[1,2-a]pyridin-2-yl)sulfanylpropanoic acid]",% increase of SRR activity,200 % increase of SRR activity
